# From patent US20200214324A1, “Masking Bitter Flavors” (Board of Supervisors of Louisiana State University and …, priority 2009, published 2020)
# Like-named read-outs stand apart in the source and are kept apart here.
# Columns and labels:
# [1] = blind tasting of poached chicken liver and chicken gizzard puree; type: in vivo
# Description: In initial experiments, Mogroside V was tested at varying levels from 100-500 ppm. […] Mogroside V was added to a chicken liver and chicken gizzard puree, and the puree was poached to an internal temperature of 74° C. A control puree with no mogroside was identically cooked. Six individuals tasted the samples blind and could easily differentiate them.
# [2] = taste of the mogroside itself and blocking of bitter tastes; type: in vivo
# Source text: In many (but not necessarily all) uses of the present invention, it is preferred to use levels of mogroside below the threshold at which the mogroside imparts a sweetening effect. […] Mogroside V is sweet. Mogroside III has been reported to be tasteless. […] If desired, it should be possible to use Mogroside III in higher concentration than Mogroside V to block bitter or other unwanted tastes, without imparting any sweetening effect.
# [3] = sodium reduction blends tested on whole wheat crackers; type: in vivo
# Description: (§1) These sodium reduction blends were tested with red beans, navy beans, crackers, and potato chips. Results are shown in Table III (in which “M” is an abbreviation for Mogroside V.)
# [4] = sodium reduction blends tested on shredded wheat crackers; type: in vivo
# Description: as §1
# [5] = sodium reduction blends tested on potato chips; type: in vivo
# Description: as §1
# [6] = sodium reduction blends tested on red beans; type: in vivo
# Description: as §1
# [7] = sodium reduction blends tested on navy beans; type: in vivo
# Description: as §1
# [8] = has been reported; cited from earlier work
smiles,measurement,setting,value
C[C@H](CC[C@@H](O[C@@H]1O[C@H](CO[C@@H]2O[C@H](CO)[C@@H](O)[C@H](O)[C@H]2O)[C@@H](O)[C@H](O)[C@H]1O[C@@H]1O[C@H](CO)[C@@H](O)[C@H](O)[C@H]1O)C(C)(C)O)[C@H]1CC[C@@]2(C)[C@@H]3CC=C4[C@@H](CC[C@H](O[C@@H]5O[C@H](CO[C@@H]6O[C@H](CO)[C@@H](O)[C@H](O)[C@H]6O)[C@@H](O)[C@H](O)[C@H]5O)C4(C)C)[C@]3(C)[C@H](O)C[C@]12C [Mogroside V],taste description by six blind tasters,"[1]; 150-250 ppm, puree poached to 74° C., control livery, organy, bloody","slightly sweet, “bologna-like,” and “bland.”"
same,effect above the preferred range,[1]; above about 250 ppm,a very sweet taste developed
same,effect below the preferred range,[1]; below about 150 ppm,the effect was minimal
same,preferred levels of mogroside,"[1]; initial experiments, tested 100-500 ppm",150-250 ppm
same,preference of testers,"[1]; samples with mogroside vs control puree, six individuals",All testers preferred the samples with mogroside
same,level preferred by the majority of testers,[1]; tested 100-500 ppm,200 ppm
same,taste of the compound itself,[2]; in vivo,sweet
[Cl-].[Na+] [NaCl],Overall Taste,[3],7.04
same,Saltiness,[3],6.96
same,Overall Taste,[4],6.04
same,Saltiness,[4],6.04
same,Overall Taste,[5],6.97
same,Saltiness,[5],6.92
same,Overall Taste,[6],6.79
same,Saltiness,[6],6.63
same,Overall Taste,[7],6.17
same,Saltiness,[7],6.13
C[C@H](CC[C@@H](O[C@@H]1O[C@H](CO[C@@H]2O[C@H](CO)[C@@H](O)[C@H](O)[C@H]2O)[C@@H](O)[C@H](O)[C@H]1O)C(C)(C)O)[C@H]1CC[C@@]2(C)[C@@H]3CC=C4[C@@H](CC[C@H](O[C@@H]5O[C@H](CO)[C@@H](O)[C@H](O)[C@H]5O)C4(C)C)[C@]3(C)[C@H](O)C[C@]12C [Mogroside III],blocking of bitter tastes,[2]; preliminary tests,effectively blocks bitter tastes
same,taste of the compound itself,[8],tasteless
